Measured values reported in patent US8846710B2, “Method of preferentially inducing the biosynthesis of interferon” (3M Innovative Properties Company, priority 2005, dated 2014).

Experiments:
[1] = tested on: tumor necrosis factor (α) (TNF-α); test: Cytokine induction in human cells: TNF-α secreted by PBMC into culture media (ORIGEN M-Series immunoassay); format: cell-based; design: key to Maximal Response (pg/mL) TNF / Maximal Response TNF: If any negative values result from background subtraction, the reading is reported as “*”, and is noted as not reliably detectable; conditions: for Minimum Effective Concentration TNF / Maximal Response TNF / minimal effective concentration: human PBMC; for Minimum Effective Concentration TNF: median where tested in more than one experiment; for Maximal Response TNF / Maximal Response (pg/mL) TNF: median; for Maximal Response (pg/mL) TNF: maximal response in dose response curve; for minimal effective concentration: lowest tested concentration inducing TNF-α over usually 40 pg/mL, median where more than one experiment, read-out: Minimum Effective Concentration (μM) TNF
From the text: (§1) Cytokine Induction in Human Cells
(§2) An in vitro human blood cell system is used to assess cytokine induction. Activity is based on the measurement of interferon (α) and tumor necrosis factor (α) (IFN-α and TNF-α, respectively) secreted into culture media as described by Testerman et. al. in “Cytokine Induction by the Immunomodulators Imiquimod and S-27609”, Journal of Leukocyte Biology, 58, 365-372 (September, 1995).
(§3) Blood Cell Preparation for Culture
(§4) Whole blood from healthy human donors is collected by venipuncture into vacutainer tubes or syringes containing EDTA. Peripheral blood mononuclear cells (PBMC) are separated from whole blood by density gradient centrifugation using HISTOPAQUE-1077 (Sigma, St. Louis, Mo.) or Ficoll-Paque Plus (Amersham Biosciences Piscataway, N.J.). Blood is diluted 1:1 with Dulbecco's Phosphate Buffered Saline (DPBS) or Hank's Balanced Salts Solution (HBSS). Alternately, whole blood is placed in Accuspin (Sigma) or LeucoSep (Oreiner Bio-One, Inc., Longwood, Fla.) centrifuge frit tubes containing density gradient medium. The PBMC layer is collected and washed twice with DPBS or HBSS and re-suspended at 4×10^6 cells/mL in RPMI complete. The PBMC suspension is added to 96 well flat bottom sterile tissue culture plates containing an equal volume of RPMI complete media containing test compound.
(§5) The compounds are solubilized in dimethyl sulfoxide (DMSO). The DMSO concentration should not exceed a final concentration of 1% for addition to the culture wells. The compounds are generally tested at concentrations ranging from 30-0.014 μM. Controls include cell samples with media only, cell samples with DMSO only (no compound), and cell samples with reference compound.
(§6) The solution of test compound is added at 60 μM to the first well containing RPMI complete and serial 3 fold dilutions are made in the wells. The PBMC suspension is then added to the wells in an equal volume, bringing the test compound concentrations to the desired range (usually 30-0.014 μM). The final concentration of PBMC suspension is 2×10^6 cells/mL. The plates are covered with sterile plastic lids, mixed gently and then incubated for 18 to 24 hours at 37° C. in a 5% carbon dioxide atmosphere.
(§7) Following incubation the plates are centrifuged for 10 minutes at 1000 rpm (approximately 200×g) at 4° C. The cell-free culture supernatant is removed and transferred to sterile polypropylene tubes. Samples are maintained at −30 to −70° C. until analysis. The samples are analyzed for IFN-α by ELISA and for TNF-α by IGEN/BioVeris Assay.
(§8) Interferon (α) and Tumor Necrosis Factor (α) Analysis
The TNF-α concentration is determined by ORIGEN M-Series Immunoassay and read on an IGEN M-8 analyzer from BioVeris Corporation, formerly known as IGEN International, Gaithersburg, Md. The immunoassay uses a human TNF-α capture and detection antibody pair (Catalog Numbers AHC3419 and AHC3712) from Biosource International, Camarillo, Calif. Results are expressed in pg/mL.
(§9) In total, the data output of the assay consists of concentration values of TNF-α and IFN-α (y-axis) as a function of compound concentration (x-axis).
Analysis of the data has two steps. First, the greater of the mean DMSO (DMSO control wells) or the experimental background (usually 20 pg/mL for IFN-α and 40 pg/mL for TNF-α) is subtracted from each reading. If any negative values result from background subtraction, the reading is reported as “*”, and is noted as not reliably detectable. In subsequent calculations and statistics, “*”, is treated as a zero. Second, all background subtracted values are multiplied by a single adjustment ratio to decrease experiment to experiment variability. The adjustment ratio is the area of the reference compound in the new experiment divided by the expected area of the reference compound based on the past 61 experiments (unadjusted readings). […]

[2] = tested on: interferon (α) (IFN-α); test: Cytokine induction in human cells: IFN-α secreted by PBMC into culture media (ELISA); format: cell-based; conditions: for Maximal Response IFN / Minimum Effective Concentration IFN / minimal effective concentration: human PBMC; for Maximal Response IFN / Minimum Effective Concentration IFN: median where tested in more than one experiment; for Maximal Response (pg/mL) IFN: maximal response in dose response curve, median; for minimal effective concentration: lowest tested concentration inducing IFN-α over usually 20 pg/mL, median where more than one experiment, read-out: Minimum Effective Concentration (μM) IFN
From the text: as §1, §2, §3, §4, §5, §6, §7, §8
IFN-α concentration is determined with a human multi-subtype calorimetric sandwich ELISA (Catalog Number 41105) from PBL Biomedical Laboratories, Piscataway, N.J. Results are expressed in pg/mL.
as §9
Analysis of the data has two steps. First, the greater of the mean DMSO (DMSO control wells) or the experimental background (usually 20 pg/mL for IFN-α and 40 pg/mL for TNF-α) is subtracted from each reading. If any negative values result from background subtraction, the reading is reported as “*”, and is noted as not reliably detectable. In subsequent calculations and statistics, “*”, is treated as a zero. Second, all background subtracted values are multiplied by a single adjustment ratio to decrease experiment to experiment variability. The adjustment ratio is the area of the reference compound in the new experiment divided by the expected area of the reference compound based on the past 61 experiments (unadjusted readings). […] The reference compound used is 2-[4-amino-2-ethoxymethyl-6,7,8,9-tetrahydro-α,α-dimethyl-1H-imidazo[4,5-c]quinolin-1-yl]ethanol hydrate (U.S. Pat. No. 5,352,784; Example 91) and the expected area is the sum of the median dose values from the past 61 experiments. […]

[3] = Table 11, * = TNF below experimental background of 40 pg/mL
[4] = Table 7, background-subtracted, reference-adjusted
[5] = Table 10, * = below experimental background level

Structure (SMILES)	Minimum Effective Concentration TNF ([1]; Table 11)	Maximal Response TNF [1, 3]	Maximal Response IFN ([2]; Table 11)	Minimum Effective Concentration IFN ([2]; Table 11)	also measured
CCOCc1nc2c(N)nc3ccccc3c2n1CCNS(C)(=O)=O [Analog 71]	3.33 µM	4918 pg/mL	1465 pg/mL	0.12 µM	–
Cc1nc2c(N)nc3ccccc3c2n1CCCNC(=O)NC(C)C [Analog 81]	10 µM	490 pg/mL	1134 pg/mL	3.33 µM	–
CC(C)(Cn1c(CO)nc2c(N)nc3ccccc3c21)NS(C)(=O)=O [Example 7, N-[2-(4-Amino-2-hydroxymethyl-1H-imidazo[4,5-c]quinolin-1-yl)-1,1-dimethylethyl]methanesulfonamide]	–	154 pg/mL	1670 pg/mL	–	Maximal Response (pg/mL) TNF [1, 4]: 121 pg/mL; Maximal Response (pg/mL) IFN [2, 4]: 2250 pg/mL
Cc1nc2c(N)nc3cccnc3c2n1CC(C)(C)O [Analog 126, 1-(4-amino-2-methyl-1H-imidazo[4,5-c][1,5]naphthyridin-1-yl)-2-methylpropan-2-ol]	–	–	–	–	Maximal Response TNF ([1]; Table 12, * = below the experimental background of 40 pg/mL): 6519 pg/mL; Maximal Response IFN ([2]; Table 12): 1952 pg/mL
CCOCc1nc2c(N)nc3ccccc3c2n1CC(C)(C)N [Analog 111]	0.37 µM	11475 pg/mL	656 pg/mL	0.12 µM	–
Nc1nc2cc(-c3cccnc3)ccc2c2c1nc(CO)n2CCCCNC(=O)NC1CCCC1 [Example 197]	–	–	–	–	Maximal Response (pg/mL) TNF [1, 5]: 600 pg/mL; Maximal Response (pg/mL) IFN [2, 5]: 4373 pg/mL
COCCc1nc2c(N)nc3cc(-c4ccccc4)ccc3c2n1CC(C)(C)O [Analog 23]	–	–	–	–	minimal effective concentration ([1]; Table 10): 0.014 µM; Maximal Response (pg/mL) TNF [1, 5]: 2296 pg/mL; minimal effective concentration ([2]; Table 10): 0.014 µM; Maximal Response (pg/mL) IFN [2, 5]: 260 pg/mL
CCc1nc2c(N)nc3ccccc3c2n1CC(C)(C)CNS(C)(=O)=O [Analog 64]	3.33 µM	1453 pg/mL	1431 pg/mL	0.12 µM	–
CS(=O)(=O)NCCCn1c(CCO)nc2c(N)nc3ccccc3c21 [Example 122]	>30 µM	*	9651 pg/mL	3.33 µM	–
COCCc1nc2c(N)nc3cc(-c4ccccc4)ccc3c2n1CCCN1CCCC1=O [Analog 21]	–	–	–	–	minimal effective concentration ([1]; Table 10): 1.11 µM; Maximal Response (pg/mL) TNF [1, 5]: 201 pg/mL; minimal effective concentration ([2]; Table 10): 0.12 µM; Maximal Response (pg/mL) IFN [2, 5]: 1880 pg/mL
COCCc1nc2c(N)nc3ccccc3c2n1CCCCN [Analog 114]	0.37 µM	724 pg/mL	127231 pg/mL	0.04 µM	–
COCCc1nc2c(N)nc3ccccc3c2n1CCNS(C)(=O)=O [Analog 72]	0.04 µM	8547 pg/mL	5858 pg/mL	0.014 µM	–
CCCCNC(=O)NCCCn1c(CCO)nc2c(N)nc3ccccc3c21 [Example 126]	>30 µM	*	8361 pg/mL	1.11 µM	–
CCCc1nc2c(N)nc3ccccc3c2n1CCOCCN(C)S(C)(=O)=O [Analog 79]	3.33 µM	1312 pg/mL	1055 pg/mL	0.37 µM	–
Nc1nc2ccccc2c2c1nc(CCO)n2CCCCCCCCNC(=O)c1ccccc1 [Example 121]	3.33 µM	180 pg/mL	2441 pg/mL	0.37 µM	–
CCCc1nc2c(N)nc3cc(-c4cccnc4)ccc3c2n1CC1CCN(C(=O)C(C)C)CC1 [Analog 20]	–	–	–	–	minimal effective concentration ([1]; Table 10): 0.37 µM; Maximal Response (pg/mL) TNF [1, 5]: 1054 pg/mL; minimal effective concentration ([2]; Table 10): 0.12 µM; Maximal Response (pg/mL) IFN [2, 5]: 1157 pg/mL
CC(C)(O)Cn1c(CCO)nc2c(N)nc3cc(-c4ccccc4)ccc3c21 [Example 157]	–	–	–	–	Maximal Response (pg/mL) TNF [1, 5]: 67 pg/mL; minimal effective concentration ([2]; Table 10): 0.37 µM
CCNC(=O)NCCn1c(CCOC)nc2c(N)nc3ccccc3c21 [Analog 104]	0.12 µM	7719 pg/mL	2587 pg/mL	0.014 µM	–
CCc1nc2c(N)nc3ccccc3c2n1CCCNS(C)(=O)=O [Analog 59]	30 µM	238 pg/mL	1912 pg/mL	1.11 µM	–
COCOCc1nc2c(N)nc3ccccc3c2n1CC(C)(C)CNC(=O)c1ccccc1 [Analog 95]	0.37 µM	1820 pg/mL	832 pg/mL	0.04 µM	–
Nc1nc2ccccc2c2c1nc(CCO)n2CCCNC(=O)N1CCOCC1 [Example 128]	>30 µM	*	75 pg/mL	30 µM	–
COCCc1nc2c(N)nc3ccccc3c2n1CC(C)(C)CNS(C)(=O)=O [Analog 67]	0.04 µM	5467 pg/mL	1805 pg/mL	0.014 µM	–
CCOCc1nc2c(N)nc3cc(-c4cccc(O)c4)ccc3c2n1CC(C)(C)O [Analog 43]	–	–	–	–	minimal effective concentration ([1]; Table 10): 0.04 µM; Maximal Response (pg/mL) TNF [1, 5]: 3955 pg/mL; minimal effective concentration ([2]; Table 10): 0.04 µM; Maximal Response (pg/mL) IFN [2, 5]: 740 pg/mL
COCCc1nc2c(N)nc3ccccc3c2n1CCCCNS(C)(=O)=O [Analog 52]	0.37 µM	1931 pg/mL	7594 pg/mL	0.014 µM	–
